Experimental data reported in patent US9909104B2, “Generating definitive endoderm and pancreatic progenitor cells” (The J. David Gladstone Institutes, a testamentary trust …, priority 2013, dated 2018).

Columns and labels:
[1] = tested on: Dox-inducible secondary mouse embryonic fibroblasts (MEFs); experiment: Direct reprogramming of secondary MEFs into definitive endoderm-like cells (Sox17/Foxa2); assay type: cell-based; conditions: 1 μM Bix-01294 D0-D6; 280 μM pVc D0-D12
Procedure: Dox-inducible secondary mouse embryonic fibroblasts (MEFs) (cells at passage 3-4 were regularly used) were plated on Matrigel-coated culture dishes at a cell density of 1×10^4 cells/cm^2. Cells were cultured in MEF medium (Dulbecco's modified Eagle's medium with 10% fetal bovine serum and 2 mM Glutamax) for an additional day. The medium was then changed to Med I (Knock-out DMEM with 10% knock-out serum replacer, 5% FBS, 2 mM Glutamax, 0.1 mM non-essential amino acids (NEAA), and 0.055 mM β-mercaptoethanol) supplemented with 4 μg/ml Dox, 50 ng/ml Activin A and 1 mM LiCl for the indicated time. […] All reagents were purchased from Invitrogen if not specified, and all cytokines were from R&D Systems. […]
Total RNA was extracted using the RNeasy Plus Mini Kit in combination with QIAshredder (Qiagen). […] Expression of pluripotency and lineage-specific marker genes was analyzed by real-time PCR with iQ SYBR Green Supermix (Bio-Rad). […]
To test this hypothesis, conditions were evaluated in which definitive endoderm induction factors (Activin/Li) were added to fibroblasts either after (Approach-I) or during (Approach II) iPSC factor expression, using Sox17 and Foxa2 expression as a measure of DELC induction (FIG. 1A).

[2] = tested on: definitive endoderm-like cells (DELCs); experiment: Induction of DELCs into Pdx1+/Nkx6.1+ pancreatic progenitor-like cells (step III); assay type: cell-based, mouse; conditions: screen of 400 compounds, confirmed in larger-well cultures
Procedure: At the end of treatment, lineage specific markers were analyzed by immunostaining and/or real-time PCR.
Primary antibodies used were Sox17 (R&D), Foxa2 (Millipore), Pdx1 (R&D), Hnf6 (Santa Cruz), Pax6 (Covance), Sox9 (Santa Cruz), Nkx6.1 (Developmental Studies Hybridoma Bank), Insulin (Dako), Glucagon (Sigma), Somatostatin (Abcam), Amylase (Abcam), and CK19 (Abcam). Nuclei were visualized by DAPI (Sigma-Aldrich) staining Images were captured using a Nikon Eclipse TE2000-U microscope.
An available drug collection of 400 compounds in the 48-well format was screened to identity small molecules that induce high percentages of Pdx1^+/Nkx6.1^+ cells in DELC populations. Med-III medium (DMEM supplemented with 1×B27, 2 mM Glutamax) was used as the basal condition and double staining of Pdx1 and Nkx6.1 at 4 days post-induction was used as the readout.
Induction of Pdx1 and Nkx6.1 expression by small molecules is referred herein to the “third step” (step III) of pancreatic induction.

secondary MEF cells = experiment: Small molecules in first/second reprogramming steps, Pdx1/Nkx6.1 double staining on day 16; assay type: cell-based, mouse; conditions: 1 μM Bix-01294 D0 to D6; 280 μM pVc D0 to D12; readout day 16
Procedure: The inventors then hypothesized that overlapping lineage-specific patterning conditions based on small molecules with early reprogramming would enhance pancreatic induction. To this end, further screens of the inventors' drug collection were performed during the first- and second-step inductions, with double staining of Pdx1 and Nkx6.1 at the end of the third step (day 16) as a readout. […] In particular, 1 μM Bix-01294 (a G9a histone methyltransferase inhibitor), when added from D0 to D6, and 280 μM pVc, when added from D0 to D12, increased the number of Pdx1+/Nkx6.1+ colonies to about 3 fold and 4 fold respectively (FIG. 4D-4E).

[3] = tested on: pancreatic progenitor-like cells (PPLCs); experiment: Maturation of PPLCs into pancreatic-like cells (step IV, day 25); assay type: cell-based, mouse; conditions: 5 μM SB203580 or 280 μM pVc used individually, D16-D25, day 25
Procedure: The pancreatic progenitor-like cells generated as described herein were treated with Med-IV medium containing laminin, nicotinamide, and B27 etc. as previously reported (Schroeder et al., 2006) to determine whether those PPLCs can be further differentiated into mature pancreatic like cells. After 9 days of culture in this medium, a small population (about 0.5%) of insulin and C-peptide double-positive cells was detected.
To improve efficiency of pancreatic maturation, the inventors' drug collection was further screened in a “fourth” step (step IV) to identify compounds that increase the percentage of cells that express insulin and Pdx1 on day 25.

[4] = tested on: HDAC activity in HeLa extracts; conditions: read-out: IC50 for inhibition of HDAC activity; cited from earlier work
cPE cells = experiment: Maturation of cPE cells into C-peptide positive beta-like cells in vitro; assay type: cell-based, human; conditions: supplemented individually to basal pancreatic differentiation media
Description: Full maturation towards glucose responsive cells is optimally illustrated by transplantation of in vitro differentiated pancreas endoderm progenitor cells into immune compromised mice. […] While C-peptide positive cells expressing high levels of PDX1 were consistently observed after 10-14 days in culture (FIG. 11B), the relatively low number of cells (˜0.5%) indicated further optimization of conditions may improve the frequency of conversion to functional beta-like cells. Chemical compounds able to promote differentiation of definitive endoderm (Borowiak et al. (2009)) and PDX1^+ progenitors (Chen et al. (2009) have been identified previously. However, molecules directing the final steps of differentiation into beta-like cells have not been uncovered, likely due to difficulties in generating and maintaining sufficient numbers of differentiation-competent pancreatic endodermal progenitor cells.
A chemical screen was performed with the intent of identifying factors that would result in the more efficient development of C-peptide positive cells from expanded cPE cells.

[5] = tested on: histone deacetylases (HDACs); conditions: isoform not stated; read-out: IC50 (histone deacetylase); cited from earlier work
γ-secretase = conditions: total β-amyloid; cited from earlier work
presenilase activity = conditions: At higher concentrations (20-4000/1); cited from earlier work
SAPK2/p38 = SAPK2/p38 (Homo sapiens, UniProt Q16539); conditions: CK1 and ALK5 inhibitor; cited from earlier work
Sequence of SAPK2/p38 (Q16539 whole entry): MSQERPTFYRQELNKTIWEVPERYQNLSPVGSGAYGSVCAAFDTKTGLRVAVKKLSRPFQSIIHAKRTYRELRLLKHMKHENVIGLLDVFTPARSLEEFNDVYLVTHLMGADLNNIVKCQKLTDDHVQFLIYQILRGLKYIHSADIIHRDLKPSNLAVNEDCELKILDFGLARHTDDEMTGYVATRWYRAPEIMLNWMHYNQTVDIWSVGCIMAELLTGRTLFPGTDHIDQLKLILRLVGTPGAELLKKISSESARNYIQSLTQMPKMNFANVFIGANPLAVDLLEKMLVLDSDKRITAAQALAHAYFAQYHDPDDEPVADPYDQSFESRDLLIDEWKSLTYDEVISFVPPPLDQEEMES

[6] = tested on: Human foreskin fibroblasts; experiment: Conversion of human fibroblasts into definitive endodermal progenitor (cDE) colonies

Compound: 2-phospho-L-ascorbic acid trisodium salt [pVc]
- numbers of Sox17 and Foxa2 single positive and double positive cells [1]: no significant influence
- hit confirmation: increase of Pdx1 and/or Nkx6.1 expression [2]: Confirmed hits
- number of Pdx1+/Nkx6.1+ colonies (secondary MEF cells): ~4 fold
- number of insulin+/Pdx1+ double-positive cells [3]: significantly increased

Compound: Cc1cccc(-c2nn(C(=S)Nc3ccccc3)cc2-c2ccnc3ccccc23)n1 [A83-01, 3-(6-Methyl-2-pyridinyl)-N-phenyl-4-(4-quinolinyl)-1H-pyrazole-1-carbothioamide]
- hit confirmation: increase of Pdx1 and/or Nkx6.1 expression [2]: Confirmed hits

Compound: Nc1ccccc1NC(=O)CCCCCCC(=O)Nc1ccccc1 [BML-210, N1-(2-aminophenyl)-N8-phenyl-octanediamide]
- IC50 [4]: ~80000 nM

Compound: COC(=O)C1=C(C)NC(C)=C([N+](=O)[O-])C1c1ccccc1C(F)(F)F (stereo not drawn) [BayK-8644, 3-pyridinecarboxylic acid, 1,4-dihydro-2,6-dimethyl-5-nitro-4-(2-(trifluoromethyl)phenyl), methyl ester]
- effect on percentage of C-peptide positive cells (cPE cells): effective in increasing

Compound: COc1cc2nc(N3CCCN(C)CC3)nc(NC3CCN(Cc4ccccc4)CC3)c2cc1OC [Bix-01294]
- numbers of Sox17 and Foxa2 single positive and double positive cells [1]: no significant influence
- number of Pdx1+/Nkx6.1+ colonies (secondary MEF cells): about 3 fold

Compound: CC1(C)NC(=O)C(CCCCCC(=O)[C@H]2CO2)NC(=O)C2CCCN2C(=O)[C@@H](Cc2ccccc2)NC1=O (stereo partly drawn) [Chlamydocin, (3R)-3-benzyl-6,6-dimethyl-9-[6-[(2R)-oxiran-2-yl]-6-oxohexyl]-1,4,7,10-tetrazabicyclo[10.3.0]pentadecane-2,5,8,11-tetrone]
- IC50 [5]: ~0.15 nM

Compound: C[C@H](NC(=O)Cc1cc(F)cc(F)c1)C(=O)N[C@H]1N=C(c2ccccc2)c2ccccc2N(C)C1=O [Compound E]
- effect on percentage of C-peptide positive cells (cPE cells): effective in increasing
- IC50 (γ-secretase): 0.3 nM
- effect on presenilase activity (presenilase activity): only weakly affects

Compound: NC(=O)c1ccc(-c2nc(-c3ccc4c(c3)OCCO4)c(-c3ccccn3)[nH]2)cc1 [D 4476, 4-[4-(2,3-Dihydro-1,4-benzodioxin-6-yl)-5-(2-pyridinyl)-IH-imidazol-2-yl]benzamide]
- selectivity over SAPK2/p38 (SAPK2/p38): greater than 20 fold

Compound: CC1NC(=O)C(C)NC(=O)C2CCCN2C(=O)C(CCCCCCC(=O)C2CO2)NC1=O [HC Toxin, (6R,9S,14aR)-3,6R-dimethyl-9S-(7-((S)-oxiran-2-yl)-7-oxoheptyl)decahydropyrrolo[1,2-a][1,4,7,10]tetraazacyclododecine-1,4,7,10-tetranone]
- IC50 [5]: 30 nM

Compound: Cc1c(C(=O)Nc2ccc(N3C[C@@H](C)O[C@@H](C)C3)nc2)cccc1-c1ccc(OC(F)(F)F)cc1 [LDE225]
- hit confirmation: increase of Pdx1 and/or Nkx6.1 expression [2]: Confirmed hits

Compound: Nc1ccccc1NC(=O)c1ccc(CNc2nccc(-c3cccnc3)n2)cc1 [MGCD0103, N-(2-aminophenyl)-4-[[(4-pyridin-3-ylpyrimidin-2-yl)amino]methyl]benzamide]
- IC50 [5]: ~100 nM

Compound: Nc1ccccc1NC(=O)c1ccc(CNC(=O)OCc2cccnc2)cc1 [MS-27-275, pyridin-3-ylmethyl-N-[[4-[(2-aminophenyl)carbamoyl]phenyl]methyl]carbamate]
- IC50 [5]: 100 to 1000 nM

Compound: CCNC(=O)[C@H]1O[C@@H](n2cnc3c(N)ncnc32)C(O)C1O (stereo partly drawn) [NECA, 5′-N-ethylcarboxamidoadenosine]
- further increase of conversion rate over improved condition (NaB, Par, RG) ([6]; FOXA2 positive colonies day 28): 2 fold
- increase over the basal protocol ([6]; NECA together with NaB, Par, RG108): 5 fold
- FOXA2 and SOX17 double-positive cDE colonies from 400,000 human fibroblasts ([6]; optimized condition (NaB, Par, RG108, NECA)): approximately fifty

Compound: C[S+]([O-])c1ccc(-c2nc(-c3ccc(F)cc3)c(-c3ccncc3)[nH]2)cc1 (stereo not drawn) [SB203580, 4-(4-fluorophenyl)-2-(4-methylsulfinylphenyl)-5-(4-pyridyl)-1H-imidazole]
- number of insulin+/Pdx1+ double-positive cells [3]: significantly increased

Compound: CC(/C=C/C(=O)NO)=C\[C@@H](C)C(=O)c1ccc(N(C)C)cc1 [Trichostatin A, (R,2E,4E)-6-(4-(dimethylamino)benzoyl)-N-hydroxy-4-methylhepta-2,4-dienamide]
- IC50 [5]: ~1.8 nM

Compound: O=C1O[C@H]([C@@H](O)CO)C(O)=C1O [Vitamin C]
- effect on percentage of C-peptide positive cells (cPE cells): effective in increasing
